Series [1] deals with mitochondrial DNA (ND1, 16S rRNA). Nature of the series: Mitochondrial DNA analysis in mouse liver. Type of series: in vivo. The settings on record: normalized with HK2. On the procedure:
Quantification of mtDNA was performed as described (BCurr Protoc Mouse Biol 2017; 7:47-54). Snap frozen mouse liver was homogenized and total cellular DNA was extracted with a QIAamp DNA kit (Qiagen) followed b PCR with the primers below: […]

Series [2] has as its system SDHA mRNA. As to the kind of experiment: qPCR primary human hepatocytes, SDHA mRNA. Format: cell-based. The settings on record: NCT 5, 15, 40 μM. As to the method: Experiments with primary human hepatocytes were performed by CN-Bio (Cambridge, UK). Briefly, primary human hepatocytes (PHHs), human Kupffer cells (HKs) and human stellate cells (HSCs) were seeded onto CN-Bio's PhysioMimix LC12 MPS culture plates at 6×10^5 cells for PHHs and 6×10^4 cells for HKs and HSCs in 1.6 ml of CN-Bio's HEP-lean media with 5% FCS. Throughout the experiment the cells were maintained at a flow rate of 1 μl/s. After 24 hours (Day 1) of seeding, the media was changed to HEP-lean media and the cells were incubated until day 4 to allow the cells to form microtissues. At day 4 post seeding, media was changed to HEP-fat media and treated with DMSO or NCT (5, 15, 40 μM). Media was replaced on days 6 and 8. Cells were harvested on day 10 for RNA extraction and culture media was collected for ELISA analysis.
(§1) Total RNA was isolated from liver tissues and primary human hepatocytes using Trizol (Invitrogen). cDNA was amplified using 3 μg of total RNA using qScript cDNA SuperMix (Quanta BioSciences, Beverly, MA, USA). Quantitative real time PCR (RT-PCR) analysis was performed using SYBR® Select Master Mix (Applied Biosystems) and an ABI 7900HT thermal cycler (Applied Biosystems, Thermo Fisher Scientific). Ct values were normalized to 18s rRNA and are expressed as fold change over samples from mice fed NC or cultured human hepatocytes without NCT.

Series [3] in a line: Oral gavage delivery of NCT to DIO mice. Format: in vivo, mouse. On the procedure: 12-week-old C57BL/6J DIO male mice were purchased from Jackson laboratory (cat #380050) and were fed with high fat diet (Research Diets, cat #D12492 60 kcal % fat). […] 14 week old mice were injected subcutaneously using sterile insulin syringes filled with DMSO or NCT (200 mg/kg of mouse body weight) bid for 2 weeks. For oral gavage, 14-week-old C57BL/6J DIO male mice were fed by oral gavage using a feeding needle attached to a sterile 1 ml syringe filled with 200 μL of methyl cellulose (MC, vehicle control) or 200 μL of NCT (200 mg/kg) dissolved in methyl cellulose twice a day for 2 weeks. […] For analysis all mice were sacrificed after 2 weeks of treatment.

The test system of series [4] is PPARGC1A (PGC1α) mRNA. Nature of the series: RNA-seq of livers of mice treated for 2 weeks with NCT. The settings on record: livers of mice treated for 2 weeks (GEO 174848). Format: in vivo, mouse. An excerpt:
The ability of NCT to increase mitochondrial mass raised the question of the mechanism by which that occurred. […] PPARGC1A plays an important role in mitochondrial biogenesis but is not known to be regulated by HNF4α. […]

The subject of series [5] is PPARGC1A (PGC1α). Nature of the series: Western blot, mouse liver, PPARGC1A. The settings on record: ten weeks of oral NCT. Type of series: in vivo. As to the method: Mouse liver extracts were prepared by incubation in RIPA buffer (Invitrogen) containing protease inhibitors (Calbiochem, San Diego, CA). Protein was quantified by BCA assay (Thermo Scientific). Protein ([…] for cytochrome C) was separated on 12% or 16% Tri-Glycine gels (Invitrogen) and transferred to Immobilon P membrane (0.2 μm pore size, Millipore). After 1 hour in phosphate-buffered saline-Tween (PBST) with 3% milk, membranes were incubated with antibodies to PPARGC1A(PGC1α) (Cat #NBP1-04676, Novus, 1:1000), SDHA XP (Cat #11998, Cell Signaling 1:1000), or Cytochrome C (Cat #4280, Cell Signaling 1:500), followed by secondary antibody conjugated to horseradish peroxidase (1:5000, Jackson Immune or Cell Signaling). […] After detection, membrane was incubated with Ponceau S solution (Sigma) for 1 hr for normalization to loaded protein.
(In general: In western blotting, separated proteins are transferred to a membrane and probed.)

The nature of series [6]: Free fatty acid quantification in serum. Format: in vivo, mouse. The settings on record: HFD+NCT vs HFD, 10 weeks. On the procedure:
Blood samples were collected from dextrose injected mice and centrifuged to collect serum samples. The serum FFA level was measured according to manufacturer's instructions using a Free Fatty Acid Quantification Colorimetric/Fluorometric Kit (Cat #K612, BioVision, USA). Fold change was calculated by normalizing to values from mice fed NC.

In series [7] the test system is cleaved caspase3. Nature of the series: Cleaved caspase3 immunostaining. Format: in vivo, mouse. The settings on record: mice fed HFD with vs without NCT. On the procedure:
Frozen liver sections were permeabilized using 0.3% Triton-X and incubated in antigen retrieval solution (Antigen retrieval citrate, Biogenex) at sub-boiling temperature for 10 min. Subsequently, sections were incubated with blocking buffer containing 5% normal donkey serum (Jackson Immuno Research) followed by incubation overnight at 4° C. with mouse anti-HNF4α monoclonal antibody (1:800, Cat #PP-H1415-00, R&D Systems), rabbit polyclonal anti-VDAC antibody (1:400, cat #PA1-954A, Invitrogen) and cleaved caspase3 antibody (1:500, cat #9664, Cell Signaling). Sections were washed and incubated for 1 hour at room temperature with anti-mouse secondary antibody coupled with Alexa fluor 488 (1:400, Invitrogen) and antirabbit secondary antibody coupled with rhodamine red. Nuclei were visualized by counterstaining with DAPI (40,6-diamidino-2-phenylindole, Sigma Aldrich). Slides were mounted using fluorescence mounting medium and images were obtained at 40× magnification using an Olympus IX71 fluorescence microscope. Fluorescence intensity of HNF4α-stained nuclei and VDAC stained mitochondria was calculated using MetaMorph TL software (version 7.6.5.0, Olympus). Fold change was calculated by normalizing to values from mice fed NC. […]

Series [8] relates to PPARGC1A mRNA. As to the kind of experiment: qPCR mouse liver, PPARGC1A mRNA. The settings on record: ten weeks of oral NCT. Format: in vivo. On the procedure: as §1
Background: Real-time PCR tracks product formation cycle by cycle.

For `O=C(/C=C/c1ccc(O)c(O)c1)NCCc1ccc(O)cc1` [NCT, N-transcaffeoyltyramine], in series [1], the “mitochondrial DNA, 16S rRNA” value is “significant increase” and the “mitochondrial DNA, ND1” value is given as “significant increase”. In series [2], the “SDHA mRNA in primary human hepatocytes” value is recorded as “increased”. Also, the “liver color after oral gavage NCT” value in series [3] (200 mg/kg bid, 2 weeks, vs methyl cellulose) is given as “No difference in liver color”. Besides, in series [3] (200 mg/kg in methyl cellulose, 2 doses per day, 2 weeks), the “outcome of oral gavage delivery” value is “compound precipitation”. In addition, the “NCT compound level in serum and stool” value in series [3] (following oral gavage 200 mg/kg bid) is recorded as “present in stool but not serum”. Further, the “increase in PPARGC1A (PGC1α) mRNA” value in series [4] was “approximately 6 fold”. In addition, the “PPARGC1A protein in mouse liver” value in series [5] was “increased”. In addition, in series [6], the “circulating free fatty acid (FFA)” value was “no difference”. For the same compound, the “Caspase 3, marker of apoptosis” value in series [7] is reported as “no change”. Besides, in series [8], the “PPARGC1A mRNA in mouse liver” value is given as “increased”.

The values are drawn from US20240374546A1, “USES AND METHODS FOR PROMOTING INCREASED MITOCHONDRIAL MASS AND FUNCTION” (Brightseed, Inc., priority 2022, published 2024).
